≈ marks a conversion by molar mass, not a printed value. Blank lines part the entries; values can stand above or below the compound they belong to. Calls of active or inactive are those of the source. The calls are words filed in the database; no cut-off is given here.
How the values were obtained:
HCT-116 [1] = assay: Cytotoxicity against human HCT-116 cells assessed as inhibition of cell growth at 20 uM incubated for 48 hrs by SRB assay relative to control; assay type: functional
MCF7 [2] = assay: Cytotoxicity against human MCF7 cells assessed as inhibition of cell growth at 20 uM incubated for 48 hrs by SRB assay relative to control; assay type: functional
HCT-116 [3] = assay: Cytotoxicity against human HCT-116 cells assessed as inhibition of cell growth incubated for 48 hrs by SRB assay; assay type: functional, cell-based; conditions: HCT-116, 48 h
MCF7 [4] = assay: Cytotoxicity against human MCF7 cells assessed as inhibition of cell growth incubated for 48 hrs by SRB assay; assay type: functional, cell-based; conditions: MCF7, 48 h
[5] = Cytotoxicity against human HEK293 cells assessed as inhibition of cell growth incubated for 48 hrs by SRB assay; assay type: toxicity, cell-based
[6] = Selectivity index, ratio of IC50 for HEK293 cells to IC50 for human HCT-116 cells; assay type: toxicity; conditions: HEK293 cells versus HCT-116 cells, read-out: Ratio IC50
[7] = Selectivity index, ratio of IC50 for HEK293 cells to IC50 for human MCF7 cells; assay type: toxicity; conditions: HEK293 cells versus MCF7 cells, read-out: Ratio IC50
MCF7 [8] = assay: Induction of apoptosis in human MCF7 cells assessed as viable cells at 5.3 uM incubated for 24 hrs by Annexin V-FITC/PI staining based flow cytometric analysis (reference value: 88.20 %); assay type: functional; conditions: read-out: Activity
MCF7 [9] = assay: Induction of apoptosis in human MCF7 cells assessed as early apoptotic cells at 5.3 uM incubated for 24 hrs by Annexin V-FITC/PI staining based flow cytometric analysis (reference value: 2.93 %); assay type: functional
MCF7 [10] = assay: Induction of apoptosis in human MCF7 cells assessed as late apoptotic cells at 5.3 uM incubated for 24 hrs by Annexin V-FITC/PI staining based flow cytometric analysis (reference value: 4.85 %); assay type: functional
MCF7 [11] = assay: Induction of apoptosis in human MCF7 cells assessed as necrotic cells at 5.3 uM incubated for 24 hrs by Annexin V-FITC/PI staining based flow cytometric analysis (reference value: 4.02 %); assay type: functional
MCF7 [12] = assay: Inhibition of colony formation in human MCF7 cells assessed as reduction in number of colonies at subtoxic doses measured after 48 hrs by crystal violet staining based analysis; assay type: functional, cell-based
MCF7 [13] = assay: Induction of ROS production in human MCF7 cells assessed as DCFDA intensity at 5.3 uM incubated for 24 hrs by flow cytometric analysis (reference value: 0.95 %); assay type: functional
MCF7 [14] = assay: Induction of mitochondrial membrane loss in human MCF7 cells assessed as fold change at 5.3 uM incubated for 24 hrs by Mitotracker dye based flow cytometric analysis relative to control; assay type: functional
MCF7 [15] = assay: Cell cycle arrest in human MCF7 cells assessed as accumulation of cells at G1 phase at 5.3 uM incubated for 24 hrs by PI staining based flow cytometric analysis (reference value: 63.9 %); assay type: functional
MCF7 [16] = assay: Cell cycle arrest in human MCF7 cells assessed as accumulation of cells at S phase at 5.3 uM incubated for 24 hrs by PI staining based flow cytometric analysis (reference value: 22.93 %); assay type: functional
MCF7 [17] = assay: Cell cycle arrest in human MCF7 cells assessed as accumulation of cells at G2/M phase at 5.3 uM incubated for 24 hrs by PI staining based flow cytometric analysis (reference value: 13.7 %); assay type: functional
MCF7 [18] = assay: Anticancer activity against human MCF7 cells assessed as reduction in cell viability at 5.3 uM incubated for 48 hrs by SRB assay relative to control; assay type: functional
MCF7 [19] = assay: Anticancer activity against human MCF7 cells assessed as reduction in cell viability at 5.3 uM preincubated with LY320135 for 1 hrs followed by compound addition and measured after 48 hrs by SRB assay; assay type: functional, cell-based
MCF7 [20] = assay: Anticancer activity against human MCF7 cells assessed as reduction in cell viability at 5.3 uM preincubated with SR144528 for 1 hrs followed by compound addition and measured after 48 hrs by SRB assay; assay type: functional, cell-based
MCF7 [21] = assay: Anticancer activity against human MCF7 cells assessed as reduction in cell viability at 5.3 uM preincubated with ML-193 for 1 hrs followed by compound addition and measured after 48 hrs by SRB assay; assay type: functional, cell-based
MCF7 [22] = assay: Anticancer activity against human MCF7 cells assessed as reduction in cell viability at 5.3 uM preincubated with capsazepine for 1 hrs followed by compound addition and measured after 48 hrs by SRB assay; assay type: functional, cell-based
MCF7 [23] = assay: Anticancer activity against human MCF7 cells assessed as reduction in cell viability at 5.3 uM preincubated with GW9662 for 1 hrs followed by compound addition and measured after 48 hrs by SRB assay; assay type: functional, cell-based
[24] = Solubility of compound in water by UV absorbance based analysis; assay type: physicochemical
[25] = Solubility of compound in SGF by UV absorbance based analysis; assay type: physicochemical
[26] = Solubility of compound in SIF by UV absorbance based analysis; assay type: physicochemical
[27] = Metabolic stability in human liver microsomes assessed as half-life at 5 uM measured upto 30 mins in presence of NADPH by LC-MS/MS analysis; assay type: ADME, Microsome
[28] = Metabolic stability in human liver microsomes assessed as intrinsic clearance at 5 uM measured upto 30 mins per mg protein in presence of NADPH by LC-MS/MS analysis; assay type: ADME, Microsome; conditions: read-out: CLH
[29] = Metabolic stability in human liver assessed as intrinsic clearance at 5 uM measured upto 30 mins in presence of NADPH by LC-MS/MS analysis; assay type: ADME, tissue-based; conditions: read-out: CLH
[30] = Metabolic stability in human liver microsomes assessed as hepatic extraction ratio at 5 uM measured upto 30 mins in presence of NADPH by LC-MS/MS analysis; assay type: ADME, Microsome; conditions: read-out: ERH
Cytochrome P450 2C19 = Cytochrome P450 2C19 (Homo sapiens, UniProt P33261); assay: Inhibition of CYP2C19 in human liver microsomes using S-mephenytoin substrate at 1 to 10 uM in presence of NADPH by LC-MS/MS analysis; assay type: ADME, Microsome; conditions: dose 1-10 µM
Cytochrome P450 1A2 = Cytochrome P450 1A2 (Homo sapiens, UniProt P05177); assay: Inhibition of CYP1A2 in human liver microsomes using […] substrate at 1 to 10 uM in presence of NADPH by LC-MS/MS analysis; assay type: ADME, Microsome; conditions: dose 1-10 µM
[31] = Permeability of compound at 100 uM incubated for 16 hrs by PAMPA-BBB assay; assay type: ADME
[32] = Metabolic stability in mouse liver microsomes assessed as half-life at 5 uM measured upto 30 mins in presence of NADPH by LC-MS/MS analysis; assay type: ADME, Microsome
[33] = Metabolic stability in mouse liver microsomes assessed as intrinsic clearance at 5 uM measured upto 30 mins per mg protein in presence of NADPH by LC-MS/MS analysis; assay type: ADME, Microsome; conditions: read-out: CLH
[34] = Metabolic stability in mouse liver assessed as intrinsic clearance at 5 uM measured upto 30 mins in presence of NADPH by LC-MS/MS analysis; assay type: ADME, tissue-based; conditions: read-out: CLH
[35] = Metabolic stability in mouse liver microsomes assessed as hepatic extraction ratio at 5 uM measured upto 30 mins in presence of NADPH by LC-MS/MS analysis; assay type: ADME, Microsome; conditions: read-out: ERH
MCF7 [36] = assay: Anticancer activity against human MCF7 cells; assay type: functional, cell-based
DU-145 = assay: Anticancer activity against human DU-145 cells; assay type: functional, cell-based
[37] = Anticancer activity against mouse NIH3T3 cells; assay type: toxicity, cell-based
Raji = assay: Anticancer activity against human Raji cells; assay type: functional, cell-based
HT-29 = assay: Anticancer activity against human HT-29 cells; assay type: functional, cell-based
Jurkat = assay: Anticancer activity against human Jurkat cells; assay type: functional, cell-based
NCI-H226 = assay: Anticancer activity against human NCI-H226 cells; assay type: functional, cell-based
SNB-19 = assay: Anticancer activity against human SNB-19 cells; assay type: functional, cell-based

Sequence of Cytochrome P450 2C19 (P33261 whole entry): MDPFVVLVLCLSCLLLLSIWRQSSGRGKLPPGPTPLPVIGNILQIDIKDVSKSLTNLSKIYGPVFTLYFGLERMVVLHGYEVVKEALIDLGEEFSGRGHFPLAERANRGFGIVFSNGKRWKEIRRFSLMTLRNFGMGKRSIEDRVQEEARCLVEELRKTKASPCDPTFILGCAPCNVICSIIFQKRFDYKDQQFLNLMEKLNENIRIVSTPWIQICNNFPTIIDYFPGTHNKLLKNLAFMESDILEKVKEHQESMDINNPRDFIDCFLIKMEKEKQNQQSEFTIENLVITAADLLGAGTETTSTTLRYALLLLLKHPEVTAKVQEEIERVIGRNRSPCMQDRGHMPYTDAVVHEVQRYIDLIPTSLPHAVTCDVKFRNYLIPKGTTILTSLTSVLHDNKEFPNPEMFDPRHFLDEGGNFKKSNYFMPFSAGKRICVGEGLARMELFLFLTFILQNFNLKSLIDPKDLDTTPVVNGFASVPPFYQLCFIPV
Sequence of Cytochrome P450 1A2 (P05177 whole entry): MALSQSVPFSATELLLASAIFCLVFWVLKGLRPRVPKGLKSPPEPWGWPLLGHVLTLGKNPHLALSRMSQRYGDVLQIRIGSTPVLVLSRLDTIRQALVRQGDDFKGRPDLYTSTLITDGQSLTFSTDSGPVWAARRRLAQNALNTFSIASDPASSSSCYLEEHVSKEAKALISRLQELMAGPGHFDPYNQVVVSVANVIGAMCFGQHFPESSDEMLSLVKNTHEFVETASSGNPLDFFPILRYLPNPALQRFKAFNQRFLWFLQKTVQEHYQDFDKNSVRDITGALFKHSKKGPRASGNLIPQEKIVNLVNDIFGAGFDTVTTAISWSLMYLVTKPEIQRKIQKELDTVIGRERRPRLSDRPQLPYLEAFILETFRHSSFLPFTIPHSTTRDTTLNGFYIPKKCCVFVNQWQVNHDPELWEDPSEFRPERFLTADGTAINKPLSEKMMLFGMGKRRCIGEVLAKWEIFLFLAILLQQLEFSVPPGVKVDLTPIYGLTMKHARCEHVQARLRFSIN

SMILES: C=C(C)[C@@H]1CCC(C)=C[C@H]1c1c(O)cc(CCCCC)c2c1OCN(CCCC)C2
inhibition at 20 µM (HCT-116 [1]): 82.6%
inhibition at 20 µM (MCF7 [2]): 85.3%
IC50 (HCT-116 [3]): 4200 nM
IC50 (MCF7 [4]): 5300 nM
IC50 at 48 h [5]: 37100 nM
selectivity ratio [6]: 8.8
selectivity ratio [7]: 7
viability at 5.3 µM (MCF7 [8]): 66.1%
Activity (MCF7 [9]): 8.93%
Activity (MCF7 [10]): 15.07%
Activity (MCF7 [11]): 9.86%
inhibition (MCF7 [12]): Active
Activity (MCF7 [13]): 12.05%
fold change (FC) (MCF7 [14]): 4.3
Activity (MCF7 [15]): 75.72%
Activity (MCF7 [16]): 15.48%
Activity (MCF7 [17]): 8.8%
Activity (MCF7 [18]): 46.45%
Activity (MCF7 [19]): Active
Activity (MCF7 [20]): Active
Activity (MCF7 [21]): Active
Activity (MCF7 [22]): Active
Activity (MCF7 [23]): Active
solubility [24]: 80 µg/mL (≈ 194 µM)
solubility [25]: > 1500 µg/mL
solubility [26]: 80 µg/mL (≈ 194 µM)
half-life at 5 µM [27]: 32 min
microsomal CLint at 5 µM [28]: 44 µL/min/mg
CLint scaled at 5 µM [29]: 51 mL/min/kg
hepatic extraction ratio at 0.5 h, 5 µM [30]: 0.71
inhibition (INH) (Cytochrome P450 2C19): Active
inhibition (INH) (Cytochrome P450 1A2): Active
permeability [31]: Permeable
half-life at 5 µM [32]: 31 min
microsomal CLint at 5 µM [33]: 46 µL/min/mg
CLint scaled at 5 µM [34]: 182 mL/min/kg
hepatic extraction ratio at 0.5 h, 5 µM [35]: 0.67

IC50 (MCF7 [36]): 449 nM
IC50 (DU-145): 449 nM
IC50 (Raji): 449 nM
IC50 (HT-29): 449 nM
IC50 (Jurkat): 449 nM
IC50 (NCI-H226): 449 nM
IC50 (SNB-19): 449 nM
SMILES: C=C(C)[C@@H]1CCC(C)=C[C@H]1C1=C(OC)C(=O)C(CCCCC)=CC1=O
IC50 [37]: 449 nM
